Patent publication US10729633B2, “Methods for boosting UVA photo-protection using antioxidants” (L'OREAL, priority 2018, dated 2020)

Key:
[1] = Oxygen Radical Absorbance Capacity (ORAC) assay; type: biochemical; settings: in tubo, Trolox standard
Procedure: (§1) In tubo antioxidant testing was carried out to determine the antioxidant profile of antioxidants that boost UVA photo-protection.
The Oxygen Radical Absorbance Capacity (ORAC) assay is one of most commonly used methods to evaluate the capacity of antioxidants against ROS (reactive oxygen species), specific for peroxyl which is one of the most important free radicals present in the human skin environment. The ORAC assay measures the oxidative degradation of the fluorescent probe (fluorescein) after being mixed with free radical generators such as azo-initiator compounds (2,2′-Azobis(2-amidinopropane) dihydrochloride, AAPH). Azo-initiators produce the peroxyl radical by heating, which damages the fluorescent molecule, resulting in the loss of fluorescence. Antioxidants protect the fluorescent molecule from the oxidative degeneration. By quantifying the decay of fluorescence using a fluorometer, the degree of protection is determined comparing with a standard control antioxidant Trolox. The result is expressed in mol equivalent of Trolox per gram of sample (i.e., μmol TE/g). Equipment that can automatically measure and calculate the capacity is commercially available, such as the VarioSkan flash microplate reader from Thermo Scientific. To test samples for ORAC, compounds are dissolved into water-based NaH2PO4 buffer.

[2] = Hydroxyl Radical Absorbance Capacity (HORAC) assay; type: biochemical; settings: in tubo, Gallic Acid standard
Procedure: as §1
The HORAC assay is another common method to examine antioxidant activity. It is specific for hydroxyl radicals. The Varioskan Flash is employed for the quantification of the capacity of an antioxidant to avert the hydroxyl radical. The hydroxyl radical, generated from hydrogen peroxide and Cobalt (II) fluoride, will quench a fluorescent probe by a hydrogen atom transfer reaction. In the presence of an antioxidant, however, the molecule will chelate the Co(II), preventing the generation of the hydroxyl radical and initially block or prevent the quenching of the probe, causing a delay in the fluorescence decay profile. The area under the fluorescence decay curves for samples with and without the presence of an antioxidant molecule are compared to that of a standard reference material and the hydroxyl radical averting capacity is determined. By quantifying the decay of fluorescence using a fluorometer, the degree of protection is determined by comparison with a standard control antioxidant Gallic Acid (standard reference material). The result is expressed in μmol equivalent of Gallic Acid per gram of sample (i.e., μmol GAE/g). Equipment that can automatically measure and calculate the capacity is commercially available, such as the VarioSkan flash microplate reader from Thermo Scientific. To test samples by using HORAC, compounds are dissolved into water-based NaH2PO4 buffer.

[3] = Superoxide Radical Absorbance Capacity (SORAC) assay; type: biochemical; design: key: None: No detectable value; settings: in tubo, WST-1 probe
Procedure: as §1
The Superoxide Radical Absorbance Capacity (SORAC) assay is an in tubo method to determine the relative capacity of an antioxidant to dismutate the superoxide anion. The Varioskan Flash is employed to measure the superoxide dismutase-catalyzed dismutation of the superoxide anion in the presence of the absorbance probe, water-soluble tetrazolium salt (WST-1). WST-Formazan is produced when WST-1 is […] by superoxide anion that is generated by the mixture of xanthine and xanthine oxidase. One unit of SOD activity is defined as the quantity of antioxidant to obtain 50% inhibition of the rate of reduction of WST-1. The final SORAC value is expressed as one unit of SOD activity per milligram of dry weight of antioxidant material at 50% inhibition (Unit/mg).

[4] = In vivo PPD: UVPPD PF according to ISO 24442; settings: conclusion in words from PPD data of Examples 2 and 3
Procedure: To characterize protection from UVA radiation, the PPD (Persistent Pigment Darkening) method, which measures the color of the skin observed 2 to 4 hours after exposure of the skin to UVA radiation, is used. This method was adopted in 1996 by the Japanese Cosmetic Industry Association (JCIA) as the official test procedure for the UVA labelling of products and is commonly used in industry, especially in Europe and the United States. See JAPAN COSMETIC […] ASSOCIATION TECHNICAL BULLETIN, Measurement Standards for UVA Protection Efficacy. Issued Nov. 21, 1995 and effective of Jan. 1, 1996), which is incorporated herein by reference in its entirety. […]
The degree of UVA protection provided by each of the formulations was determined in terms of UVPPD PF. […]
The UVPPD PF for each of sunscreen formulations A, B, and C was determined according to ISO 24442, which was adopted by the Japan Cosmetic Industry Association in 2012 for characterization of UVA protection and is incorporated herein by reference in its entirety. […] UVA radiation can be monitored continuously during exposure using a Model DCS-1 Sunburn UV Meter/Dose Controller System (Solar Light Co.), formerly known as the Robertson-Berger Sunburn meter (R-B meter). […] The MPPD of unprotected skin is determined under standardized lighting conditions 2 to 4 hours after exposures. […]

Compound	ORAC-peroxyl [1]	HORAC-hydroxyl [2]	SORAC-superoxide [3]	boosting effect on UVA photo-protection [4]
COc1cc(/C=C/C(=O)O)ccc1O [Ferulic acid]	Strong (>10000)	Strong (>10000)	Weak (<200)	
O=C(O)[C@H]1O[C@@H](Oc2cc3oc(-c4ccccc4)cc(=O)c3c(O)c2O)[C@H](O)[C@@H](O)[C@@H]1O [Baicalin, reference compound]	Medium (4500-10000)	Weak (<2600)	Medium (200-1000)	did not boost UVA photo-protection
O=C(CCc1ccc(O)cc1)c1c(O)cc(O)cc1O [Phloretin]	Strong (>10000)	Medium (2600-10000)	None	
OC[C@H]1O[C@@H](Oc2cc(O)cc(/C=C/c3ccc(O)cc3)c2)[C@H](O)[C@@H](O)[C@@H]1O [Polydatin]	Strong (>10000)	Strong (>10000)	None	
